# Assay results from US20250034182A1, “PHOSPHOLIPID COMPOUNDS AND METHODS OF MAKING AND USING THE SAME” (priority 2021, published 2025).
# System: Respiratory syncytial virus recombinant with luciferase (RSV-Luc5) in NHBE cells
# Test: NHBE RSV-Luc5 384-well assay (EC50 RSVFLUC NHBE-384, Example U)
# Type: cell-based
# Details: human respiratory syncytial virus, 72 h, read-out: RSV FLuc NHBE 384 EC50 (v2) (nM) (per Ex. U)
# Protocol: Normal Human Bronchial Epithelial (NHBE) cells were purchased from Lonza (Walkersville, MD Cat #CC2540) and maintained in BEGM Bronchial Epithelial Cell (Growth Medium BulletKit (Lonza CC-3170).
# Cells were thawed, expanded, and were used for experiments at passage 2. Respiratory syncytial virus recombinant with luciferase (RSV-Luc5) (≥1×10^7 Infectious Units/ml (IU/ml) determined by TCID50) was purchased from Microbiologics (Saint Cloud, MN). Viral replication was determined in NHBE cells in the following manner.
# Compounds are prepared in 100% DMSO in 384-well polypropylene plates (Greiner, Monroe, NC, Cat #784201) with 8 compounds per plate in grouped replicates of 4 at 10 serially diluted concentrations (1:3). The serially diluted compounds were transferred to low dead volume Echo plates (Labcyte, Sunnyvale, CA, Cat #LP-0200).
# The test compounds were spotted to 384-well assay plates (Greiner, Monroe, NC, Cat #781091) at 200 nL per well. NHBE cells were harvested and suspended in BEGM Bronchial Epithelial Cell Growth Medium BulletKit and seeded to the pre-spotted assay plates at 5,000 cells per well in 30 μL. RSV-Luc5 virus was diluted in BEGM Bronchial Epithelial Cell Growth Medium BulletKit at 500,000 Infectious Units (IU) per mL and 10 μL per well was added to the assay plates containing cells and compounds, for an MOI of 1. The assay plates were incubated for 3 days at 37° C. and 5% CO2. At the end of incubation, One-Glo reagent (Promega, Madison, WI, Cat #E6120) was prepared. The assay plates and One-Glo reagent were equilibrated to room temperature for at least 15 minutes. 40 μL per well of One-Glo reagent was added and the plates were incubated at room temperature for 15 minutes before reading the luminescence signal on an EnVision multimode plate reader (Perkin Elmer, Waltham, MA). Remdesivir was used as positive control and DMSO was used as negative control. Values were normalized to the positive and negative controls (as 0% and 100% replication, respectively) and data was fitted using non-linear regression analysis by Gilead's dose response tool. The EC50 value for each compound was defined as the concentration reducing the viral replication by 50%.
row,SMILES,EC50 [nM]
1,"CCCCCCCCCCCCCCCCCCOC[C@H](COP(=O)(O)OC[C@@]1(C#N)O[C@@H](c2ccc3c(N)ncnn23)[C@H](O)[C@@H]1O)OCc1cc(F)cc(C#N)c1 [Compound 1, ((2R,3S,4R,5S)-5-(4-aminopyrrolo[2,1-f][1,2,4]triazin-7-yl)-2-cyano-3,4-dihydroxytetrahydrofuran-2-yl)methyl ((R)-2-((3-cyano-5-fluorobenzyl)oxy)-3-(octadecyloxy)propyl) hydrogen phosphate]",54
2,"CCCCCCCCCCCCCCCCCCOC[C@H](COP(=O)(O)OC[C@@]1(C#N)O[C@@H](c2ccc3c(N)ncnn23)[C@H](O)[C@@H]1O)OCc1ccc(C#N)c(-n2cncn2)c1 [Compound 16, ((2R,3S,4R,5S)-5-(4-aminopyrrolo[2,1-f][1,2,4]triazin-7-yl)-2-cyano-3,4-dihydroxytetrahydrofuran-2-yl)methyl ((R)-2-((4-cyano-3-(1H-1,2,4-triazol-1-yl)benzyl)oxy)-3-(octadecyloxy)propyl) hydrogen phosphate]",< 3
3,"CCCCCCCCCCCCCCCCCCOC[C@H](COP(=O)(O)OC[C@@]1(C#N)O[C@@H](c2ccc3c(N)ncnn23)[C@H](O)[C@@H]1O)Oc1ccc(C#N)c(OC(C)C)c1 [Compound 23, ((2R,3S,4R,5S)-5-(4-aminopyrrolo[2,1-f][1,2,4]triazin-7-yl)-2-cyano-3,4-dihydroxytetrahydrofuran-2-yl)methyl ((R)-2-(4-cyano-3-isopropoxyphenoxy)-3-(octadecyloxy)propyl) hydrogen phosphate]",4
4,"CCCCCCCCCCCCCCCCCCC[C@H](COP(=O)(O)OC[C@@]1(C#N)O[C@@H](c2ccc3c(N)ncnn23)[C@H](O)[C@@H]1O)OCc1cc(F)cc(C#N)c1 [Compound 25, ((2R,3S,4R,5S)-5-(4-aminopyrrolo[2,1-f][1,2,4]triazin-7-yl)-2-cyano-3,4-dihydroxytetrahydrofuran-2-yl)methyl ((R)-2-((3-cyano-5-fluorobenzyl)oxy)henicosyl) hydrogen phosphate]",169
5,"CCCCCCCCCCCCCCCCCCC[C@H](COP(=O)(O)OC[C@@]1(C#N)O[C@@H](c2ccc3c(N)ncnn23)[C@H](O)[C@@H]1O)OCc1ccc(C#N)c(OC(C)C)c1 [Compound 28, ((2R,3S,4R,5S)-5-(4-aminopyrrolo[2,1-f][1,2,4]triazin-7-yl)-2-cyano-3,4-dihydroxytetrahydrofuran-2-yl)methyl ((R)-2-((4-cyano-3-isopropoxybenzyl)oxy)henicosyl) hydrogen phosphate]",46
6,"CCCCCCCCCCCCCCCCCCCC[C@H](COP(=O)(O)OC[C@@]1(C#N)O[C@@H](c2ccc3c(N)ncnn23)[C@H](O)[C@@H]1O)OCc1cc(F)cc(C#N)c1 [Compound 34, ((2R,3S,4R)-5-(4-aminopyrrolo[2,1-f][1,2,4]triazin-7-yl)-2-cyano-3,4-dihydroxytetrahydrofuran-2-yl)methyl ((R)-2-((3-cyano-5-fluorobenzyl)oxy)docosyl) hydrogen phosphate]",272
7,"CCCCCCCCCCCCCCCCCCC[C@H](COP(=O)(O)OC[C@@]1(C#N)O[C@@H](c2ccc3c(N)ncnn23)[C@H](O)[C@@H]1O)Oc1ccc(C#N)c(OC(C)C)c1 [Compound 38, ((2R,3S,4R,5S)-5-(4-aminopyrrolo[2,1-f][1,2,4]triazin-7-yl)-2-cyano-3,4-dihydroxytetrahydrofuran-2-yl)methyl ((R)-2-(4-cyano-3-isopropoxyphenoxy)henicosyl) hydrogen phosphate]",25
8,"CCCCCCCCCCCCCCCCCCC[C@H](COP(=O)(O)OC[C@@]1(C#N)O[C@@H](c2ccc3c(N)ncnn23)[C@H](O)[C@@H]1O)Oc1cc(OC)c(C#N)c(OC)c1 [Compound 39, ((2R,3S,4R,5S)-5-(4-aminopyrrolo[2,1-f][1,2,4]triazin-7-yl)-2-cyano-3,4-dihydroxytetrahydrofuran-2-yl)methyl ((R)-2-(4-cyano-3,5-dimethoxyphenoxy)henicosyl) hydrogen phosphate]",51
9,"CCCCCCCCCCCCCCCCCCOCC(COc1cc(F)cc(C#N)c1)COP(=O)(O)OC[C@@]1(C#N)O[C@@H](c2ccc3c(N)ncnn23)[C@H](O)[C@@H]1O (stereo partly drawn) [Compound 43, ((2R,3S,4R,5S)-5-(4-aminopyrrolo[2,1-f][1,2,4]triazin-7-yl)-2-cyano-3,4-dihydroxytetrahydrofuran-2-yl)methyl (3-(3-cyano-5-fluorophenoxy)-2-((octadecyloxy)methyl)propyl) hydrogen phosphate]",98
10,"CCCCCCCCCCCCCCOC[C@H](COP(=O)(O)OC[C@@]1(C#N)O[C@@H](c2ccc3c(N)ncnn23)[C@H](O)[C@@H]1O)Oc1cc(C#N)ccn1 [Compound 69, ((2R,3S,4R)-5-(4-aminopyrrolo[2,1-f][1,2,4]triazin-7-yl)-2-cyano-3,4-dihydroxytetrahydrofuran-2-yl)methyl ((R)-2-((4-cyanopyridin-2-yl)oxy)-3-(tetradecyloxy)propyl) hydrogen phosphate]",32
11,"CCCCCCCCCCCCCCOC[C@H](COP(=O)(O)OC[C@@]1(C#N)O[C@@H](c2ccc3c(N)ncnn23)[C@H](O)[C@@H]1O)OCc1ccc(C#N)cc1F [Compound 75, ((2R,3S,4R,5S)-5-(4-aminopyrrolo[2,1-f][1,2,4]triazin-7-yl)-2-cyano-3,4-dihydroxytetrahydrofuran-2-yl)methyl ((R)-2-((4-cyano-2-fluorobenzyl)oxy)-3-(tetradecyloxy)propyl) hydrogen phosphate]",12
12,"CCCCCCCCCCCCCCCCC[C@H](COP(=O)(O)OC[C@@]1(C#N)O[C@@H](c2ccc3c(N)ncnn23)[C@H](O)[C@@H]1O)OCc1cc(Cl)cc(C#N)c1 [Compound 76, ((2R,3S,4R)-5-(4-aminopyrrolo[2,1-f][1,2,4]triazin-7-yl)-2-cyano-3,4-dihydroxytetrahydrofuran-2-yl)methyl ((R)-2-((3-chloro-5-cyanobenzyl)oxy)nonadecyl) hydrogen phosphate]",113
13,"CCCCCCCCCCCCCCCCCC[C@H](COP(=O)(O)OC[C@@]1(C#N)O[C@@H](c2ccc3c(N)ncnn23)[C@H](O)[C@@H]1O)OCc1cc(F)cc(C#N)c1 [Compound 84, ((2R,3S,4R,5S)-5-(4-aminopyrrolo[2,1-f][1,2,4]triazin-7-yl)-2-cyano-3,4-dihydroxytetrahydrofuran-2-yl)methyl ((R)-2-((3-cyano-5-fluorobenzyl)oxy)icosyl) hydrogen phosphate]",9
14,"CCCCCCCCCCCCCCCCOC[C@@H](COP(=O)(O)OC[C@@]1(C#N)O[C@@H](c2ccc3c(N)ncnn23)[C@H](O)[C@@H]1O)OCc1cc(F)cc(C#N)c1 [Compound 88, ((2R,3S,4R,5S)-5-(4-aminopyrrolo[2,1-f][1,2,4]triazin-7-yl)-2-cyano-3,4-dihydroxytetrahydrofuran-2-yl)methyl ((S)-2-((3-cyano-5-fluorobenzyl)oxy)-3-(hexadecyloxy)propyl) hydrogen phosphate]",38

# System: HCV Replicon 1B
# Test: HCV Replicon 1B EC50 (Example Q)
# Type: cell-based
# Details: Hepatitis C virus, 72 h; HCV replicon cells, 3 days, Dual-Glo luciferase; read-out: HCV Replicon 1B EC50 (nM) (per Ex. Q)
# Protocol: Compounds were serially diluted in ten steps of 1:3 dilutions in 384-well plates. All serial dilutions were performed in four replicates per compound within the same 384-well plate. An HCV protease inhibitor ITMN-191 at […] was added as a control of 100% inhibition of HCV replication while puromycin at 10 mM was included as a control of 100% cytotoxicity. To each well of a black polystyrene 384-well plate (Greiner Bio-one, Monroe, NC), 90 μL of cell culture medium (without Geneticin) containing 2000 suspended HCV replicon cells was added with a Biotek μFlow workstation. For compound transfer into cell culture plates, 0.4 μL of compound solution from the compound serial dilution plate was transferred to the cell culture plate on a Biomek FX workstation. The DMSO concentration in the final assay wells was 0.44%. The plates were incubated for 3 days at 37° C. with 5% CO2 and 85% humidity. The HCV replicon assay was a multiplex assay, able to assess both cytotoxicity and antireplicon activity from the same well. The CC50 assay was performed first. The media in the 384-well cell culture plate was aspirated, and the wells were washed four times with 100 μL of PBS each, using a Biotek ELX405 plate washer. A volume of 50 μL of a solution containing 400 nM calcein AM (Anaspec, Fremont, CA) in 1×PBS was added to each well of the plate with a Biotek μFlow workstation. The plate was incubated for 30 min at room temperature before the fluorescence signal (excitation 490 nm, emission 520 nm) was measured with a Perkin-Elmer Envision plate reader. The EC50 assay was performed in the same wells as the CC50 assay. The calcein-PBS solution in the 384-well cell culture plate was aspirated with a Biotek ELX405 plate washer. A volume of 20 μL of Dual-Glo luciferase buffer (Promega, Madison, WI) was added to each well of the plate with a Biotek μFlow Workstation. The plate was incubated for 10 min at room temperature. A volume of 20 μL of a solution containing a 1:100 mixture of Dual-Glo Stop & Glo substrate (Promega, Madison, WI) and Dual-Glo Stop & Glo buffer (Promega, Madison, WI) was added to each well of the plate with a Biotek μFlow Workstation. The plate was then incubated at room temperature for 10 min before the luminescence signal was measured with a Perkin-Elmer Envision Plate Reader.
row,SMILES,EC50 [nM]
1,"CCCCCCCCCCCCCCCCCCOC[C@H](COP(=O)(O)OC[C@@]1(C#N)O[C@@H](c2ccc3c(N)ncnn23)[C@H](O)[C@@H]1O)OCc1cc(F)cc(C#N)c1 [Compound 1, ((2R,3S,4R,5S)-5-(4-aminopyrrolo[2,1-f][1,2,4]triazin-7-yl)-2-cyano-3,4-dihydroxytetrahydrofuran-2-yl)methyl ((R)-2-((3-cyano-5-fluorobenzyl)oxy)-3-(octadecyloxy)propyl) hydrogen phosphate]",13800
